Test results published in patent US8471005B2 (Cephalon, Inc., priority 2008, dated 2013).
Like-named read-outs stand apart in the source and are kept apart here.

Legend:
ALK = molecular target: T1, ALK (Homo sapiens, UniProt Q9UM73); assay: ALK Kinase Assay (ELISA/TRF, PLC-γ substrate); type: biochemical; conditions: read-out: ALK Potency
T1 construct: host or cells: baculovirus expression system
Method: Briefly, each 96-well plate was coated with […] of 10 μg/mL substrate (phospholipase C-γ) in Tris-buffered saline (TBS). […] The reaction was initiated by adding enzyme (30 ng/ml ALK) and was allowed to proceed at 37° C. for 15 minutes. Detection of the phosphorylated product was performed by adding 100 μl/well of Eu—N1 labeled PT66 antibody (Perkin Elmer # AD0041).
Data analysis was performed using ActivityBase (IDBS, Guilford, UK). IC50 values were calculated by plotting percent inhibition versus log10 of the concentration of compound and fitting to the nonlinear regression sigmoidal dose-response (variable slope) equation in XLFit (IDBS, Guilford, UK).

JAK2 = molecular target: T2, JAK2 (Homo sapiens, UniProt O60674); assay: Recombinant Human JAK2 Kinase Assay (TRF); type: biochemical; conditions: read-out: JAK2 Potency
T2 construct: host or cells: baculovirus expression system
T2 sequence (O60674 whole entry): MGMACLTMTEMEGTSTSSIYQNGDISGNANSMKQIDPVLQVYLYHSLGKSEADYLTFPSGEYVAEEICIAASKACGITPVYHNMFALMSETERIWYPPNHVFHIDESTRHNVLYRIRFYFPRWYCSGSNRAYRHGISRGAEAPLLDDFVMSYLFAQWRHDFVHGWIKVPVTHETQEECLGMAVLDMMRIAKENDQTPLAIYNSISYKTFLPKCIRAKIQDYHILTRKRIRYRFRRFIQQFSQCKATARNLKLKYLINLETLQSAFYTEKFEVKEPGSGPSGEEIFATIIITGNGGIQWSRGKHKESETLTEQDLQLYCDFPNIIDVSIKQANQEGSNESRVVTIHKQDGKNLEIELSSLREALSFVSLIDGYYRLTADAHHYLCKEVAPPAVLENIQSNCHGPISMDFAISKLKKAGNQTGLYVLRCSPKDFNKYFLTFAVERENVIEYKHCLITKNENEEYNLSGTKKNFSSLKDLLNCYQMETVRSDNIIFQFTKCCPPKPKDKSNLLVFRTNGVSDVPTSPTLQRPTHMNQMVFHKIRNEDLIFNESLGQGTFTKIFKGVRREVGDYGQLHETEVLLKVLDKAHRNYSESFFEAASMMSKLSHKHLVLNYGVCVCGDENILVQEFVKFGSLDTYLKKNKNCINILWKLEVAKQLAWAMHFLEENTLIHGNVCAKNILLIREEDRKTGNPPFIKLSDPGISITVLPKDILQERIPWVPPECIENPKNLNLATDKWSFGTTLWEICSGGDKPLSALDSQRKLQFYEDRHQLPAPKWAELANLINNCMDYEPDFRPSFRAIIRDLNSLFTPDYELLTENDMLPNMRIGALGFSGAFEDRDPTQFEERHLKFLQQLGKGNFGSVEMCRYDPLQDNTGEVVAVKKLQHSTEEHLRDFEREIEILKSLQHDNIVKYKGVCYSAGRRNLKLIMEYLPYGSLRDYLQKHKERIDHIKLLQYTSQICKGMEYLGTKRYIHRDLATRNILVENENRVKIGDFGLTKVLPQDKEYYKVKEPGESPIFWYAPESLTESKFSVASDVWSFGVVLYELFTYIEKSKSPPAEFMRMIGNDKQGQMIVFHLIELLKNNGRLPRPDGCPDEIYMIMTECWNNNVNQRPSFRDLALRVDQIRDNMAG
Method: Compounds were tested for their ability to inhibit the kinase activity of baculovirus-expressed JAK2 using the TRF detection system. […] The plates were coated first with 100 μL/well of 10 μg/mL Neutravidin (Pierce #31000, Rockford, Ill.) in TBS at 37° C. for 2 hours, followed by 100 μL/well of 1 μg/mL 15-mer peptide substrate (biotinyl-amino-hexanoyl-[…]-amide, Infinity Biotech Research and Resource, Aston, Pa.) at 37° C. for another hour. The JAK2 assay mixture (total volume=100 μL/well) consisting of 20 mM HEPES (pH 7.2), 0.2 μM ATP, 1 mM MnCl2, 0.1% BSA, and test compound (diluted in DMSO; 2.5% DMSO final in assay) was then added to the assay plate. Enzyme (15 ng/ml JAK2) was added and the reaction was allowed to proceed at room temperature for 20 minutes. Detection of the phosphorylated product was performed by adding 100 μL/well of Eu—N1 labeled PY100 antibody (PerkinElmer Life Sciences #AD0041, Boston, Mass.).

[1] = ALK kinase inhibition, 1 μM ATP
[2] = JAK2 kinase inhibition, 0.2 μM ATP

T1 sequence (Q9UM73 19-1620): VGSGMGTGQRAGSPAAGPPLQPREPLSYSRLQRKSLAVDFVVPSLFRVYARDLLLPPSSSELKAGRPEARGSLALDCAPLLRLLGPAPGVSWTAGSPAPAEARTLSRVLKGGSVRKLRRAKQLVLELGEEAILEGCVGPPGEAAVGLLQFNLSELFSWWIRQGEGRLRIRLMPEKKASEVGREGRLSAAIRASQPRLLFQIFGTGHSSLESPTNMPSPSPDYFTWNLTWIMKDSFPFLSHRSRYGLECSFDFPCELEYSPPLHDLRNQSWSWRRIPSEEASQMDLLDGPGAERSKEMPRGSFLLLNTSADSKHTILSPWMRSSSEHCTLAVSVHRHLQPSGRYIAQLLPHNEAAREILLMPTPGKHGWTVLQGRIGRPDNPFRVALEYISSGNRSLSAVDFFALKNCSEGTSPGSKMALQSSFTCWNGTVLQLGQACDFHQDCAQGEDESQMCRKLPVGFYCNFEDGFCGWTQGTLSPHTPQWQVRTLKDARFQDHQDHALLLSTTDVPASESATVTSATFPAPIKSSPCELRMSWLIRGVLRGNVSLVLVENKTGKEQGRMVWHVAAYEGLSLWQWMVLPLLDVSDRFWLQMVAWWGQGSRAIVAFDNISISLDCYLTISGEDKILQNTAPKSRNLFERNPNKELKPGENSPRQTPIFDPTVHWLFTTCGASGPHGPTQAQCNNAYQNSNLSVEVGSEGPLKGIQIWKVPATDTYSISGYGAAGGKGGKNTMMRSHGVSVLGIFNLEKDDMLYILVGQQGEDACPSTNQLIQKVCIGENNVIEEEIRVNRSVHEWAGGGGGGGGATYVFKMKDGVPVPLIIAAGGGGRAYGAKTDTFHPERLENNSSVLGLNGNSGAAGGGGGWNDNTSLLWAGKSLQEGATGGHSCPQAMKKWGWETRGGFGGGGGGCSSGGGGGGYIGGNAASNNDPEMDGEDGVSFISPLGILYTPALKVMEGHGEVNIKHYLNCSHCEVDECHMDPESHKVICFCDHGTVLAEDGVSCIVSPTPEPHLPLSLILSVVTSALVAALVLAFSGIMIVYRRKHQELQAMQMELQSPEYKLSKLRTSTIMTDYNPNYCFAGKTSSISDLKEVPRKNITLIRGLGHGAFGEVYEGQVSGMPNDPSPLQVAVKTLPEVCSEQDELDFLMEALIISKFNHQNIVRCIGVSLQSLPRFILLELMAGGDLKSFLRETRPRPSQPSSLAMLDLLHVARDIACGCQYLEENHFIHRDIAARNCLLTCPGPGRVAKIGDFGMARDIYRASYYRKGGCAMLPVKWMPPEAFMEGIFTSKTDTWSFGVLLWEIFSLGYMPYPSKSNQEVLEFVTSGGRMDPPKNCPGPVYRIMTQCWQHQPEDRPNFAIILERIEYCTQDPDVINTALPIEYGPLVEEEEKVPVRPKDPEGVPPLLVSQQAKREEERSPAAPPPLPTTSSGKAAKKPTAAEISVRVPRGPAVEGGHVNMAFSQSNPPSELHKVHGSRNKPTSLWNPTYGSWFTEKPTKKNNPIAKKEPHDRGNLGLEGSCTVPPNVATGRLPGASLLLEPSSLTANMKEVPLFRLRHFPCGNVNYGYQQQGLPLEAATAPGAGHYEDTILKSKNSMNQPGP

Compound | IC50 (ALK; ALK Kinase Inhibition) | IC50 (JAK2; JAK2 Kinase Inhibition) | IC50 (ALK; [1]) | IC50 (JAK2; [2])
COCCN1CCc2ccc(Nc3ncc4ccc(-c5ccccc5S(=O)(=O)N5CCCC5)n4n3)cc2CC1 [Example 32, [3-(2-Methoxy-ethyl)-2,3,4,5-tetrahydro-1H-benzo[d]azepin-7-yl]-{7-[2-(pyrrolidine-1-sulfonyl)-phenyl]-pyrrolo[2,1-f][1,2,4]triazin-2-yl}-amine] | 0.1 to 1 µM | < 0.1 µM |  | 
COc1cc([C@@H]2CCN(CCO)C[C@H]2O)ccc1Nc1ncc2ccc(-c3ccccc3OC)n2n1 (racemic) [Example 856, (±)-(3S,4S)-1-(2-Hydroxy-ethyl)-4-{3-methoxy-4-[7-(2-methoxy-phenyl)-pyrrolo[2,1-f][1,2,4]triazin-2-ylamino]-phenyl}-piperidin-3-ol] |  |  |  | < 0.1 µM
COc1cc([C@@]2(O)CCNC[C@@H]2O)ccc1Nc1ncc2ccc(-c3ccccc3OC)n2n1 (racemic) [Example 832, (±)-(3S,4S)-4-{3-Methoxy-4-[7-(2-methoxy-phenyl)-pyrrolo[2,1-f][1,2,4]triazin-2-ylamino]-phenyl}-piperidine-3,4-diol] |  |  |  | < 0.1 µM
COc1cc([C@@]2(O)CCNC[C@@H]2O)ccc1Nc1ncc2ccc(-c3ccccc3N(C)S(C)(=O)=O)n2n1 (racemic) [Example 840, (±)-N-(2-{2-[4-((3S,4S)-3,4-Dihydroxy-piperidin-4-yl)-2-methoxy-phenylamino]-pyrrolo[2,1-f][1,2,4]triazin-7-yl}-phenyl)-N-methyl-methanesulfonamide] |  |  |  | 1 to 10 µM
COc1cc([C@@]2(O)CCN(CC(N)=O)C[C@@H]2O)ccc1Nc1ncc2ccc(-c3ccccc3OC)n2n1 (racemic) [Example 849, (±)-2-43S,4S)-3,4-Dihydroxy-4-{3-methoxy-4-[7-(2-methoxy-phenyl)-pyrrolo[2,1-f][1,2,4]triazin-2-ylamino]-phenyl}-piperidin-1-yl)-acetamide] |  |  |  | < 0.1 µM
COc1cc([C@@]2(O)CCN(C(=O)OC(C)(C)C)C[C@@H]2O)ccc1Nc1ncc2ccc(-c3ccccc3OC)n2n1 (racemic) [Example 831, (±)-(3S,4S)-3,4-Dihydroxy-4-{3-methoxy-4-[7-(2-methoxy-phenyl)-pyrrolo[2,1-f][1,2,4]triazin-2-ylamino]-phenyl}-piperidine-1-carboxylic acid tert-butyl ester] |  |  |  | 0.1 to 1 µM
COc1cc([C@@H]2CCNC[C@@H]2O)ccc1Nc1ncc2ccc(-c3ccccc3OC)n2n1 (racemic) [Example 835, (±)-(3R,4S)-4-{3-Methoxy-4-[7-(2-methoxy-phenyl)-pyrrolo[2,1-f][1,2,4]triazin-2-ylamino]-phenyl}-piperidin-3-ol] |  |  |  | 0.1 to 1 µM
COc1cc([C@@H]2CCNC[C@H]2O)ccc1Nc1ncc2ccc(-c3ccccc3OC)n2n1 (racemic) [Example 855, (±)-(3S,4S)-4-{3-Methoxy-4-[7-(2-methoxy-phenyl)-pyrrolo[2,1-f][1,2,4]triazin-2-ylamino]-phenyl}-piperidin-3-ol] |  |  |  | 0.1 to 1 µM
COc1cc([C@@]2(O)CCN(C)C[C@@H]2O)ccc1Nc1ncc2ccc(-c3ccccc3OC)n2n1 (racemic) [Example 829, (±)-(3S,4S)-4-{3-Methoxy-4-[7-(2-methoxy-phenyl)-pyrrolo[2,1-f][1,2,4]triazin-2-ylamino]-phenyl}-1-methyl-piperidine-3,4-diol] |  |  |  | < 0.1 µM
COc1cc(N2CCN(C[C@@H](O)CO)CC2)ccc1Nc1ncc2ccc(-c3ccccc3OC)n2n1 [Example 758, (R)-3-(4-{3-Methoxy-4-[7-(2-methoxy-phenyl)-pyrrolo[2,1-f][1,2,4]triazin-2-ylamino]-phenyl}-piperazin-1-yl)-propane-1,2-diol] |  |  | < 0.1 µM | 
COc1cc([C@@H]2CCN(CCO)C[C@@H]2O)ccc1Nc1ncc2ccc(-c3ccccc3OC)n2n1 (racemic) [Example 848, (±)-(3R,4S)-1-(2-Hydroxy-ethyl)-4-{3-methoxy-4-[7-(2-methoxy-phenyl)-pyrrolo[2,1-f][1,2,4]triazin-2-ylamino]-phenyl}-piperidin-3-ol] |  |  |  | < 0.1 µM
COc1cc([C@@]2(O)CCN(CC(N)=O)C[C@@H]2O)ccc1Nc1ncc2ccc(-c3ccccc3N(C)S(C)(=O)=O)n2n1 (racemic) [Example 844, (±)-2-[(3S,4S)-3,4-Dihydroxy-4-(4-{7-[2-(methanesulfonyl-methyl-amino)-phenyl]-pyrrolo[2,1-f][1,2,4]triazin-2-ylamino}-3-methoxy-phenyl)-piperidin-1-yl]-acetamide] |  |  |  | 0.1 to 1 µM

Now from value to compound:

IC50 (ALK; ALK Kinase Inhibition) | IC50 (JAK2; JAK2 Kinase Inhibition) | IC50 (ALK; [1]) | IC50 (JAK2; [2]) | Compound
1 to 10 µM | < 0.1 µM |  |  | N#Cc1ccc(-c2ccc3cnc(Nc4ccc(N5CCOCC5)cc4)nn23)cn1 [Example 37, 5-[2-(4-Morpholin-4-yl-phenylamino)-pyrrolo[2,1-f][1,2,4]triazin-7-yl]-pyridine-2-carbonitrile]
 |  | 0.1 to 1 µM | < 0.1 µM | COc1ccccc1-c1ccc2cnc(Nc3ccc4c(c3)CCN(CC(N)=O)C4)nn12 [Example 917, 2-{6-[7-(2-Methoxy-phenyl)-pyrrolo[2,1-f][1,2,4]triazin-2-ylamino]-3,4-dihydro-1H-isoquinolin-2-yl}-acetamide]
 |  | 0.1 to 1 µM | < 0.1 µM | COc1ccccc1-c1ccc2cnc(Nc3cccc(OCCN4CCOCC4)c3)nn12 [Example 1003, [7-(2-Methoxy-phenyl)-pyrrolo[2,1-f][1,2,4]triazin-2-yl]-[3-(2-morpholin-4-yl-ethoxy)-phenyl]-amine]
0.1 to 1 µM | < 0.1 µM |  |  | CS(=O)(=O)c1ccc(-c2ccc3cnc(Nc4ccc(C5CCNCC5)cc4)nn23)cc1 [Example 1571, [7-(4-Methanesulfonyl-phenyl)-pyrrolo[2,1-f][1,2,4]triazin-2-yl]-(4-piperidin-4-yl-phenyl)-amine]
 |  | > 10 µM | < 0.1 µM | c1cncc(-c2ccc3cnc(Nc4ccn(CCN5CCOCC5)n4)nn23)c1 [Example 1184, [1-(2-Morpholin-4-yl-ethyl)-1H-pyrazol-3-yl]-(7-pyridin-3-yl-pyrrolo[2,1-f][1,2,4]triazin-2-yl)-amine]
 |  | < 0.1 µM | < 0.1 µM | COc1ccccc1-c1ccc2cnc(Nc3cccc(C4CCN(C)CC4)c3OC)nn12 [Example 775, [2-Methoxy-3-(1-methyl-piperidin-4-yl)-phenyl]-[7-(2-methoxy-phenyl)-pyrrolo[2,1-f][1,2,4]triazin-2-yl]-amine]
0.1 to 1 µM | < 0.1 µM |  |  | CN1CCN(c2ccc(Nc3ncc4ccc(-c5cccnc5)n4n3)cc2)CC1 [Example 27, [4-(4-Methyl-piperazin-1-yl)-phenyl]-(7-pyridin-3-yl-pyrrolo[2,1-f][1,2,4]triazin-2-yl)-amine]
0.1 to 1 µM | < 0.1 µM |  |  | O=C(c1ccc(Nc2ncc3ccc(-c4cccc(Cl)c4)n3n2)cc1)N1CCOCC1 [Example 316, {4-[7-(3-Chloro-phenyl)-pyrrolo[2,1-f][1,2,4]triazin-2-ylamino]-phenyl}-morpholin-4-yl-methanone]
 |  | 0.1 to 1 µM | < 0.1 µM | COc1ccccc1-c1ccc2cnc(Nc3ccc(N4CCN(C)CC4)nc3)nn12 [Example 1108, [7-(2-Methoxy-phenyl)-pyrrolo[2,1-f][1,2,4]triazin-2-yl]-[6-(4-methyl-piperazin-1-yl)-pyridin-3-yl]-amine]
 |  | 1 to 10 µM | < 0.1 µM | Cn1ncc2cc(Nc3ncc4ccc(-c5cccc(S(=O)(=O)CC6CC6)c5)n4n3)ccc21 [Example 1322, [7-(3-Cyclopropylmethanesulfonyl-phenyl)-pyrrolo[2,1-f][1,2,4]triazin-2-yl]-(1-methyl-1H-indazol-5-yl)-amine]
1 to 10 µM | < 0.1 µM |  |  | CS(=O)(=O)c1ccc(-c2ccc3cnc(Nc4ccc(N5CCOCC5)nc4)nn23)cc1 [Example 60, [7-(4-Methanesulfonyl-phenyl)-pyrrolo[2,1-f][1,2,4]triazin-2-yl]-(6-morpholin-4-yl-pyridin-3-yl)-amine]
 |  |  | 0.1 to 1 µM | CN1CCN(c2ccc(Nc3ncc4cc(-c5cccnc5)cn4n3)cc2)CC1 [Example 1157]
 |  |  | < 0.1 µM | COc1cc(C2CCN(C)CC2O)ccc1Nc1ncc2ccc(-c3ccccc3OC)n2n1 (racemic) [Example 830, (±)-4-{3-Methoxy-4-[7-(2-methoxy-phenyl)-pyrrolo[2,1-f][1,2,4]triazin-2-ylamino]-phenyl}-1-methyl-piperidin-3-ol]
 | < 0.1 µM |  |  | COc1ccc(Cl)cc1-c1ccc2cnc(Nc3ccc(C(C)C)c(NC(C)=O)c3)nn12 [Example 302, N-{5-[7-(5-Chloro-2-methoxy-phenyl)-pyrrolo[2,1-f][1,2,4]triazin-2-ylamino]-2-isopropyl-phenyl}-acetamide]
 |  |  | 0.1 to 1 µM | COc1cc([C@@H]2CCN(CC(N)=O)C[C@@H]2O)ccc1Nc1ncc2ccc(-c3ccccc3OC)n2n1 (racemic) [Example 839, (±)-2-43R,4S)-3-Hydroxy-4-{3-methoxy-4-[7-(2-methoxy-phenyl)-pyrrolo[2,1-f][1,2,4]triazin-2-ylamino]-phenyl}-piperidin-1-yl)-acetamide]
